Measurements published in PMC7391777, “Inhibition of acetyl-CoA carboxylase by spirotetramat causes growth arrest and lipid depletion in nematodes” (Scientific Reports, 2020).

Target: T1, C. elegans ACC (POD-2) (Caenorhabditis elegans, UniProt H2L0M0)
T1 construct: native enzyme in total protein extract of C. elegans pellet, not purified
Test: ACC activity in total protein extract, radiolabeled sodium bicarbonate
Format: biochemical
Details: total protein extract of C. elegans

T1 sequence (H2L0M0 1-2165): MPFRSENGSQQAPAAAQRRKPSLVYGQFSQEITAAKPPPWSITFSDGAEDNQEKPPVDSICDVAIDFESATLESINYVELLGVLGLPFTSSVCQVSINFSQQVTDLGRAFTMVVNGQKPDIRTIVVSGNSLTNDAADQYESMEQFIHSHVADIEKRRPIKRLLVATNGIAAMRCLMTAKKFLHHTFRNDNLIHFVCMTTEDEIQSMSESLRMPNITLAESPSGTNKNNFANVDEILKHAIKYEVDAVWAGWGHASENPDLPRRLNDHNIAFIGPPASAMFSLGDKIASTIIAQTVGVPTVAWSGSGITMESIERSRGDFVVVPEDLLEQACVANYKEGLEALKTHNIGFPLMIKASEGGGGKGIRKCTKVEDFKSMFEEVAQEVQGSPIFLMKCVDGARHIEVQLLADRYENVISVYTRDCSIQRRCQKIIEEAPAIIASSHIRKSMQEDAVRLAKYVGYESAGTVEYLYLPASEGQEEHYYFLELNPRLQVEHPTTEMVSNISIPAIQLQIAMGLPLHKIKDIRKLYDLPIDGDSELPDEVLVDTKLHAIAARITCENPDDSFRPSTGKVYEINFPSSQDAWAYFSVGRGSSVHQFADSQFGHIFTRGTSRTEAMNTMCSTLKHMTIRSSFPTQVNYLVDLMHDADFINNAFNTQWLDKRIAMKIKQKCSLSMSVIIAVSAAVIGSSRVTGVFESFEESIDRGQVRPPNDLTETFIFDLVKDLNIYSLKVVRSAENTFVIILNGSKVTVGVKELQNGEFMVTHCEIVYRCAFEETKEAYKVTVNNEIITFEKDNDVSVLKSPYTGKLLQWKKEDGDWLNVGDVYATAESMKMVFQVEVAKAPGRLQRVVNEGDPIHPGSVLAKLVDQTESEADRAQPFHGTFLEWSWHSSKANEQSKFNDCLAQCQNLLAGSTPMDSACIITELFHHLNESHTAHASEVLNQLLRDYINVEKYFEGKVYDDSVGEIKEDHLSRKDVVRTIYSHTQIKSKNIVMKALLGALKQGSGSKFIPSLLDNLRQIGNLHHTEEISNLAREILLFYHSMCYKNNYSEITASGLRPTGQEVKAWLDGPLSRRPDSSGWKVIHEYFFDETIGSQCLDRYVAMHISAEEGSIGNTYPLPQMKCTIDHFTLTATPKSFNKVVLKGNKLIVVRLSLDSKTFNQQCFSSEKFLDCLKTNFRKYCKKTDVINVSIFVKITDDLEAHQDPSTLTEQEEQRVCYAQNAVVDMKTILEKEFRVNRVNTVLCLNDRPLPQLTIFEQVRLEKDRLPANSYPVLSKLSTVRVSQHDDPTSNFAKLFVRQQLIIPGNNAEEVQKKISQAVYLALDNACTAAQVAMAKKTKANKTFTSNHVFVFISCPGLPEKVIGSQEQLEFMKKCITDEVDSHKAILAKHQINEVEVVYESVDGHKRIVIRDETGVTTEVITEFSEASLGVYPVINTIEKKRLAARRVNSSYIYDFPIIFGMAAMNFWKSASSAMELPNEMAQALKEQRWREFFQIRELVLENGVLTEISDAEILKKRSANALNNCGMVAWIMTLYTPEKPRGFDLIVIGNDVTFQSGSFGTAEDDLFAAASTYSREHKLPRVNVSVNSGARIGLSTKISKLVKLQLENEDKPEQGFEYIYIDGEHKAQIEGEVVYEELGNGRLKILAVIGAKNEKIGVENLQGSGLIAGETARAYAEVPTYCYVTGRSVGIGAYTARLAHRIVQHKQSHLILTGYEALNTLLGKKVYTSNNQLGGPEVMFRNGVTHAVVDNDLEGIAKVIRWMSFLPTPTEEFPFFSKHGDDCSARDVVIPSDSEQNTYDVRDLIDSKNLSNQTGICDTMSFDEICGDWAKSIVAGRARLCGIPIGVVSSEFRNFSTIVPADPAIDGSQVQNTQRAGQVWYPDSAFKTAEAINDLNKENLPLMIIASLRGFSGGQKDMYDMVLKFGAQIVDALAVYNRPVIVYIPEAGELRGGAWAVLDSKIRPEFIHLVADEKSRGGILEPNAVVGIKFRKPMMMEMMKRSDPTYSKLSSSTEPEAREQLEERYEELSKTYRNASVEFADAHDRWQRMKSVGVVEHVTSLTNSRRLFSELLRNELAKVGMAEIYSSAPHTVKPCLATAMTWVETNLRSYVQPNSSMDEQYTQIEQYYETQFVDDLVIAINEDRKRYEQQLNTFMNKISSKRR

Question: With `COC1CCC2(CC1)NC(=O)C(c1cc(C)ccc1C)=C2O` (stereo not shown) [SPT-enol] as the molecule, how does the IC50 read?
Answer: 50 µM
